Measurements as given in patent US12673954B2 (BRISTOL-MYERS SQUIBB COMPANY, priority 2021, dated 2026).
Where two headings read alike, the source gives them in different places.

Columns and labels:
[1] = system: IRF pathway, THP1-Dual™ cells; test: STING reporter assay in THP1-Dual cells, IRF pathway (Lucia luciferase, QUANTI-Luc); format: cell-based, human; conditions: THP1-Dual cells, 10% human plasma, 20 hours, Lucia luciferase, 100% activation = 100 μM cGAMP, read-out: IRF (EC50 μM)
Procedure, shortened: (§1)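 THP-1-derived dual-reporter cells treated with serially diluted compounds (final top concentration 100 μM) for 20 h at 37° C. NF-κB read as SEAP via QUANTI-Blue at OD620; IRF read as Lucia luminescence via QUANTI-Luc after 5 min. 100% activation set by 100 μM cGAMP, baseline by DMSO.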

[2] = system: NF-κB pathway, THP1-Dual™ cells; test: STING reporter assay in THP1-Dual cells, NF-κB pathway (SEAP, QUANTI-Blue); format: cell-based, human; conditions: THP1-Dual cells, 10% human plasma, 20 hours, SEAP, 100% activation = 100 μM cGAMP, read-out: NFkB (EC50 μM)
Procedure, shortened: as §1

Compound | EC50 ([1]; Homo sapiens, THP1-Dual, 20 h) [µM] | EC50 ([2]; Homo sapiens, THP1-Dual, 20 h) [µM] | EC50 [1] [µM] | EC50 [2] [µM]
O=C(OC1CC(F)(F)C1)c1cc(F)cc2c(Cl)c(CNC(=O)c3cnn4cccnc34)oc12 [EXAMPLE 291, 3,3-Difluorocyclobutyl 3-chloro-5-fluoro-2-((pyrazolo[1,5-a]pyrimidine-3-carboxamido)methyl)benzofuran-7-carboxylate] | 0.34 | 0.31 | – | –
O=C(OCC(F)(F)F)c1cccc2cc(CN3Cc4ccncc4C3=O)oc12 [EXAMPLE 204, 2,2,2-Trifluoroethyl 2-((3-oxo-1,3-dihydro-2H-pyrrolo[3,4-c]pyridin-2-yl)methyl)benzofuran-7-carboxylate] | 32 | 41 | – | –
COC(=O)c1ccc(OC)c2cc(CNC(=O)c3cnn4cccnc34)oc12 [EXAMPLE 33, Methyl 4-methoxy-2-((pyrazolo[1,5-a]pyrimidine-3-carboxamido)methyl)benzofuran-7-carboxylate] | 11 | 16 | – | –
Cc1cc(C(=O)O)c2oc(CNC(=O)c3cnn4cccnc34)cc2c1 [EXAMPLE 158, 5-methyl-2-((pyrazolo[1,5-a]pyrimidine-3-carboxamido)methyl)benzofuran-7-carboxylic acid] | 63 | 52 | – | –
CC(OC(=O)c1ccc(Cl)c2cc(CNC(=O)c3cnn4cccnc34)oc12)C(F)(F)F (stereo not drawn) [EXAMPLE 311, 1,1,1-Trifluoropropan-2-yl 4-chloro-2-((pyrazolo[1,5-a]pyrimidine-3-carboxamido)methyl)benzofuran-7-carboxylate] | – | – | 2 | 2.3
Cc1cc(C(=O)OCC(F)(F)F)c2oc(CNC(=O)c3cnn4cccnc34)cc2c1 [EXAMPLE 377, 2,2,2-Trifluoroethyl 5-methyl-2-((pyrazolo[1,5-a]pyrimidine-3-carboxamido)methyl)benzofuran-7-carboxylate] | 0.4 | 0.3 | – | –
COC(=O)c1cc(C2CC2)cc2cc(CNC(=O)c3cnn4cccnc34)oc12 [Example 99, Methyl 5-cyclopropyl-2-((pyrazolo[1,5-a]pyrimidine-3-carboxamido)methyl)benzofuran-7-carboxylate] | 17 | 12 | – | –
Cc1ccnc2c(C(=O)NCc3cc4cccc(C(=O)OCC(F)(F)F)c4o3)cnn12 [EXAMPLE 221, 2,2,2-Trifluoroethyl 2-((7-methylpyrazolo[1,5-a]pyrimidine-3-carboxamido)methyl)benzofuran-7-carboxylate] | 42 | 83 | – | –
COC(=O)c1cc(Cl)cc2c(Cl)c(CNC(=O)c3cnn4cccnc34)oc12 [EXAMPLE 112, Methyl 3,5-dichloro-2-((pyrazolo[1,5-a]pyrimidine-3-carboxamido)methyl)benzofuran-7-carboxylate] | 0.2 | 0.26 | – | –
COC(OC(=O)c1cc(F)cc2cc(CNC(=O)c3cnc4cccnn34)oc12)C(F)(F)F (single isomer, unassigned) [EXAMPLE 314, 2,2,2-Trifluoro-1-methoxyethyl 5-fluoro-2-((imidazo[1,2-b]pyridazine-3-carboxamido)methyl)benzofuran-7-carboxylate] | – | – | 1.9 | 1.9
O=C(OC1CCCC1)c1cc(Cl)cc2cc(CNC(=O)c3cnn4cccnc34)oc12 [EXAMPLE 243, Cyclopentyl 5-chloro-2-((pyrazolo[1,5-a]pyrimidine-3-carboxamido)methyl)benzofuran-7-carboxylate] | 1.6 | 1.9 | – | –
O=C(OCc1cccc(CO)c1)c1cc(Cl)cc2cc(CNC(=O)c3cnn4cccnc34)oc12 [EXAMPLE 252, 3-(Hydroxymethyl)benzyl 5-chloro-2-((pyrazolo[1,5-a]pyrimidine-3-carboxamido)methyl)benzofuran-7-carboxylate] | 6.4 | 5.4 | – | –
CONC(=O)c1cc(Cl)cc2cc(CNC(=O)c3cnn4cccnc34)oc12 [EXAMPLE 406, N-((5-Chloro-7-(methoxycarbamoyl)benzofuran-2-yl)methyl)pyrazolo[1,5-a]pyrimidine-3-carboxamide] | 9.4 | 7.1 | – | –
COC(=O)c1ccc(F)c2cc(CNC(=O)c3cnn4cccnc34)oc12 [EXAMPLE 23, methyl 4-fluoro-2-((pyrazolo[1,5-a]pyrimidine-3-carboxamido)methyl)-benzofuran-7-carboxylate] | 2 | 1.8 | – | –
COc1cc(C(=O)OC(OC)C(F)(F)F)c2oc(CNC(=O)c3cnn4cccnc34)cc2c1 (racemic) [EXAMPLE 281, 2,2,2-Trifluoro-1-methoxyethyl 5-methoxy-2-((pyrazolo[1,5-a]pyrimidine-3-carboxamido)methyl)benzofuran-7-carboxylate] | 11 | 14 | – | –
Cc1cc(C(=O)OCC(F)(F)F)c2oc(CN3CCc4ccncc4C3=O)cc2c1 [EXAMPLE 376, 2,2,2-Trifluoroethyl 5-methyl-2-((1-oxo-3,4-dihydro-2,7-naphthyridin-2(1H)-yl)methyl)benzofuran-7-carboxylate] | 19 | 16 | – | –
CC(NC(=O)c1cnn2cccnc12)c1cc2cc(F)cc(C(=O)O[C@H](C)C(F)(F)F)c2o1 (stereo partly drawn) [EXAMPLE 326, (R)-1,1,1-Trifluoropropan-2-yl 5-fluoro-2-(1-(pyrazolo[1,5-a]pyrimidine-3-carboxamido)ethyl)benzofuran-7-carboxylate] | – | – | 74 | > 100
CCOC(OC(=O)c1cc(F)cc2cc(CNC(=O)c3cnn4cccnc34)oc12)C(F)F (single isomer, unassigned) [EXAMPLE 324, 1-Ethoxy-2,2-difluoroethyl 5-fluoro-2-((pyrazolo[1,5-a]pyrimidine-3-carboxamido)methyl)benzofuran-7-carboxylate] | – | – | 1.5 | 1.7
O=C(OC1CC(F)(F)C1(F)F)c1cc(F)cc2cc(CNC(=O)c3cnn4cccnc34)oc12 (single isomer, unassigned) [EXAMPLE 322, 2,2,3,3-Tetrafluorocyclobutyl 5-fluoro-2-((pyrazolo[1,5-a]pyrimidine-3-carboxamido)methyl)benzofuran-7-carboxylate] | – | – | 2.2 | 3.3
COC(=O)c1cccc2cc(Cn3cnc4ccncc4c3=O)oc12 [EXAMPLE 6, Methyl 2-((4-oxopyrido[4,3-d]pyrimidin-3(4H)-yl)methyl)benzofuran-7-carboxylate] | 5.1 | 3.1 | – | –
COC(=O)c1cc(Cl)cc2cc(CNC(=O)c3cncnc3OC)oc12 [Example 73, Methyl 5-chloro-2-((4-methoxypyrimidine-5-carboxamido)methyl)benzofuran-7-carboxylate] | 2.1 | 2.6 | – | –
C[C@H](NC(=O)c1cnn2cccnc12)c1cc2cc(Cl)cc(C(=O)OCC(F)(F)F)c2o1 [EXAMPLE 266, 2,2,2-Trifluoroethyl (S)-5-chloro-2-(1-(pyrazolo[1,5-a]pyrimidine-3-carboxamido)ethyl)benzofuran-7-carboxylate] | 3.1 | 2.6 | – | –
O=C(OCC(F)(F)F)c1cc(Cl)cc2cc(CNC(=O)c3cnn4cccnc34)oc12 [EXAMPLE 239, 2,2,2-Trifluoroethyl 5-chloro-2-((pyrazolo[1,5-a]pyrimidine-3-carboxamido)methyl)benzofuran-7-carboxylate] | 0.53 | 0.39 | – | –
COC(OC(=O)c1cc(F)cc2cc(CNC(=O)c3cnn4cccnc34)oc12)C(F)(F)F (single isomer, unassigned) [EXAMPLE 320, 2,2,2-Trifluoro-1-methoxyethyl 5-fluoro-2-((pyrazolo[1,5-a]pyrimidine-3-carboxamido)methyl)benzofuran-7-carboxylate] | – | – | 1.4 | 1.4
CC(OC(=O)c1cccc2cc(CNC(=O)c3cnn4cccnc34)oc12)C(F)(F)F (stereo not drawn) [EXAMPLE 218, 1,1,1-Trifluoropropan-2-yl 2-((pyrazolo[1,5-a]pyrimidine-3-carboxamido)methyl)benzofuran-7-carboxylate] | 5.5 | 4.4 | – | –
Cc1cc(C(=O)OC(C)C(F)(F)F)c2oc(CNC(=O)c3cnn4cccnc34)cc2c1 (stereo not drawn) [EXAMPLE 378, 1,1,1-Trifluoropropan-2-yl 5-methyl-2-((pyrazolo[1,5-a]pyrimidine-3-carboxamido)methyl)benzofuran-7-carboxylate] | 1.3 | 1.2 | – | –
C[C@H](NC(=O)c1cnn2cccnc12)c1cc2cc(Cl)cc(C(=O)O[C@H](C)C(F)(F)F)c2o1 [EXAMPLE 268, (R)-1,1,1-Trifluoropropan-2-yl 5-chloro-2-((S)-1-(pyrazolo[1,5-a]pyrimidine-3-carboxamido)ethyl)benzofuran-7-carboxylate] | 6.1 | 5.6 | – | –
COC(=O)c1cccc2c(Cl)c(CNC(=O)c3cnn4cccnc34)oc12 [EXAMPLE 22, Methyl 3-chloro-2-((pyrazolo[1,5-a]pyrimidine-3-carboxamido)methyl)benzofuran-7-carboxylate] | 0.6 | 0.67 | – | –
COC(=O)c1cccc2cc(CNC(=O)c3cnn4cc(C)cnc34)oc12 [EXAMPLE 11, Methyl 2-((6-methylpyrazolo[1,5-a]pyrimidine-3-carboxamido)methyl) benzofuran-7-carboxylate] | – | – | 6.1 | 6.7
CC(OC(=O)c1cc(Cl)cc2cc(CN3CCc4ccncc4C3=O)oc12)C(F)(F)F (stereo not drawn) [EXAMPLE 338, 1,1,1-Trifluoropropan-2-yl 5-chloro-2-((1-oxo-3,4-dihydro-2,7-naphthyridin-2(1H)-yl)methyl)benzofuran-7-carboxylate] | – | – | 46 | 48
